# According to patent publication US20110189094A1, “BIOLOGICAL METHOD FOR IN VIVO TRACKING OF MOLECULES AFFECTING CELLULAR MIGRATION” (UNIVERSIDAD DE CHILE, priority 2008, published 2011):
# How the values were obtained:
# neuromasts = assay: DiAsp tinction of mature neuromasts of the posterior lateral line in zebra fish embryos; format: in vivo, zebra fish (Danio rerio)
# Method: (§1) Zebra fish (Danio rerio) are used, kept in a 14/10-hour light/darkness cycle. Embryos are recovered after natural fish mating and they grow in Petri plates at 28° C. in E3 medium (5 mM NaCl, 0.17 mM KCl, 0.33 mM CaCl2, 0.33 mM MgSO4, and 0.1% Methylene Blue) until the reach the development stadium suitable for the test, which is determined according to Kimmel et al., (1995). The larval stadiums are designated in post fertilization hours (hpf) or post fertilization days (dpf).
# (§2) In this way, we have evaluated our hypothesis of the Fenritinide effect on dendritic cells, taking our invention as the test model. Zebra fish embryos were incubated in accordance with the basic conditions described in Example 1, but in the presence of Fenritinide since the time when the posterior lateral line primordium starts to migrate (22 hours post fecundation (hpf) stadium), until the LLP system is mature (36 hpf stadium) and is easily visualized with the DiAsp tinction. […] We checked whether the absence of mature neuromasts is caused by migration blocking by means of in situ hybridization using the claudin-B (anti-claudinB antibody, detected with immunofluorescence) primordium marker.
# (§3) Embryos in the 22 hpf stadium were incubated between 26 and 28° C., in the absence or presence of either PGD2 or 15-deoxy-PJE2, permitting the development of embryos up to the 36 hpf stadium, at which time we checked the primordium advance both in the treated embryos and in the (untreated) control embryos.
# CD80 = assay: Expression of CD80 in dendritic cells; format: cell-based
# Source text: (§4) Dendritic cells, when entering the maturation process, start to express chemokine receptors (CCR7, CXCR4) that direct their migration towards the secondary lymphoid organs. We have recently discovered that Fenritinide {4-HPR), a molecule utilized in “clinical trials” against breast cancer and neuroblastoma, inhibits the expression of CCR7 and CXCR4 in dendritic cells in maturation {Villablanca, Allende and collaborators; manuscript in preparation). […] In this way, Fenritinide would produce a blocking of the mature dendritic cells in the periphery, preventing their migration and arrival at the secondary lymphoid organs, affecting in this way the development of an immune response to pathogens or towards the tumoral cells proper.
# CXCR4 [1] = assay: Expression of CXCR4 in dendritic cells in maturation; format: cell-based
# Source text: as §4
# CD83 = assay: Expression of CD83 in dendritic cells; format: cell-based
# Source text: as §4
# CD86 = assay: Expression of CD86 in dendritic cells; format: cell-based
# Source text: as §4
# CCR7 = assay: Expression of CCR7 in dendritic cells in maturation; format: cell-based
# Source text: as §4
# lateral line primordium = assay: Lateral line primordium migration in CldnB::GFP transgenic zebra fish larvae (GFP fluorescence); format: in vivo, zebra fish (Danio rerio); details: 20 μM in medium, 22 hpf until 36 hpf
# Method: as §1
# In this first example, in each cup on a plate with 24 cups with 2 ml of E3 medium each, we placed from 3-10 transgenic embryos that express the GFP gene under the control of the CldnB promoter (CldnB::GFP; kindly donated by Dr. Darren Gilmour (EMBL, Heidelberg, Germany). The agents subjected to tests (N˜(4˜hydroxyphenyl)retinamide (Fenretinide, 4-HPR), retinaldehide 9-cis, retinaldehide all-trans and only with the control vehicle: DMSO) were added to the medium at a final concentration of 20 μM when the embryos reached the 22 hpf stadium and the fish were kept in the medium plus the agent until 36 hpf. The GFP mark in the migratory primordium was observed every 4-6 hours in order to monitor its progress. At 36 hpf, we fixed one half of the fish (5 from each cup) with 4% paraformaldehyde dissolved in PBS. We observe the fluorescence of GFP (indicating the primordium position) and evaluated whether it migrated properly or not (FIG. 1).
# [2] = test system: posterior lateral line primordium; assay: Primordium migration with claudin-B primordium marker in zebra fish embryos; format: in vivo, zebra fish (Danio rerio); details: Example 2, incubation 22 hpf until 36 hpf
# Method: as §1, §2
# LLP primordium = LLP primordium advance in zebra fish embryos incubated with prostaglandins; format: in vivo, zebra fish (Danio rerio)
# Method: as §1, §3
# human dendritic cells = details: literature, Nencioni et al. 2002; cited from earlier work
# CXCR4 [3] = details: literature, Scandelia et al. 2002; cited from earlier work
# dendritic cells = assay: Migration of dendritic cells; format: cell-based; details: negative control
# Source text: as §4
# [4] = Example 3, 10 μM, 22 hpf up to 36 hpf
molecule,measurement,setting,value
"CC1=C(/C=C/C(C)=C/C=C/C(C)=C/C(=O)Nc2ccc(O)cc2)C(C)(C)CCC1 [4-HPR, N˜(4˜hydroxyphenyl)retinamide]",DiAsp tinction of mature neuromasts,"neuromasts; Example 2, incubation 22 hpf until 36 hpf",negative
same,inhibition of CD80,CD80,does not inhibit
same,expression of CXCR4,CXCR4 [1],inhibits
same,inhibition of CD83,CD83,does not inhibit
same,inhibition of CD86,CD86,does not inhibit
same,expression of CCR7,CCR7,inhibits
same,migration of the lateral line primordium (GFP fluorescence),lateral line primordium,delay in the migration
same,primordium migration (claudin-B primordium marker),[2],blocking of the migratory primordium at the beginning of its migration
"CC1=C(/C=C/C(C)=C\C=C\C(C)=C\C=O)C(C)(C)CCC1 [9cRA, 9-cis retinaldehyde]",migration of the lateral line primordium (GFP fluorescence),lateral line primordium,normal migration
CCCCC[C@H](O)/C=C/[C@H]1C(=O)C[C@H](O)[C@@H]1C/C=C\CCCC(=O)O [PGD2],DiAsp tinction of neuromasts,neuromasts; [4],negative
same,LLP primordium migration,LLP primordium; [4],considerably slower
same,migration through CXCR4 in human dendritic cells,human dendritic cells,inhibit migration
CCCCC[C@H](O)/C=C/[C@H]1[C@H](O)CC(=O)[C@@H]1C/C=C\CCCC(=O)O [PGE2],DiAsp tinction of neuromasts,"neuromasts; Example 3, 22 hpf up to 36 hpf, 26-28° C., concentration not given",dyed with DiAsp
same,LLP primordium migration,"LLP primordium; Example 3, 22 hpf up to 36 hpf, concentration not given",migrated normally
same,expression of CXCR4 in dendritic cells,CXCR4 [3],increments
CC1=C(/C=C/C(C)=C/C=C/C(C)=C/C(=O)O)C(C)(C)CCC1 [retinoic acid],expression of CXCR4,CXCR4 [1],not capable of inhibiting
same,inhibition of the migration of dendritic cells,dendritic cells,not capable of inhibiting
retinaldehide all-trans [atRA],migration of the lateral line primordium (GFP fluorescence),lateral line primordium,normal migration
